Source: US7977366B2, “Treating an inflammatory disorder or inhibiting respiratory burst in adherent neutrophils with chemical inhibitors of neutrophil activation” (Cornell Research Foundation, Inc., priority 2003, dated 2011)
“Also recorded” adds a separate entry of the source.

Legend:
[1] = system: human neutrophils; test: TNF triggered degranulation of neutrophils (lactoferrin and myeloperoxidase release, ELISA); assay type: cell-based; details: for myeloperoxidase (MPO) release triggered by TNF: marker of azurophil granule; for lactoferrin (LF) release triggered by TNF: marker of specific granule
Protocol: Respiratory burst was measured as described elsewhere (De la Harpe et al., “A Semi-Automated Micro-Assay for H2O2 Release by Human Blood Monocytes and Mouse Peritoneal Macrophages,” J Immunol Methods 78:323-336 (1985), which is hereby incorporated by reference in its entirety). Briefly, 96-well flat-bottomed plates (Primaria, Falcon) were coated with 50 μl/well of FBS in 5% CO2 at 37° C. for at least 1 h and washed three times with 0.9% saline. Neutrophils (1.5×10^4) were added to triplicate wells containing 100 μl of reaction mixture (2.4 nm scopoletin, 0.5 μg horseradish peroxidase (HRP), and 1 mM NaN3) and stimulated with either buffer control, TNF (PreproTech, London, UK) or phorbol myristate acetate (PMA), each at 100 ng/ml. The reduction of scopoletin by H2O2 was recorded every 15 min on a plate-reading fluorometer until H2O2 release reached plateau and the amount of H2O2 released calculated as described (De la Harpe et al., “A Semi-Automated Micro-Assay for H2O2 Release by Human Blood Monocytes and Mouse Peritoneal Macrophages,” J Immunol Methods 78:323-336 (1985), which is hereby incorporated by reference in its entirety). The supernatant from the H2O2 release assay with 1.5×10^4 neutrophils was used to measure degranulation using lactoferrin (LF) or myeloperoxidase (MPO) ELISA kit (Oxis International, Inc., Portland, Oreg.). Spontaneous cell death from the same supernatant was measured using Cytotoxicity Detection Kit (Roche Molecular Biochemicals, Nutley, N.J.). The total cell content of LF, MPO, and lactate dehydrogenase (LDH) was determined after lysing cells with 1% Triton X100. LDH is a cytosolic enzyme whose release indicates cell lysis, such that high release of LF or MPO in the face of low release of LDH is taken as a measure of degranulation.
To test whether any of these compounds has any role in degranulation, the release of lactoferrin (LF) (as a marker of specific granule) and myeloperoxidase (MPO, as a marker of azurophil granule) were measured in the supernatant. […] The effect of Comp I on LF release was inconclusive due to high background release of LF in non-stimulated cells.

[2] = system: human neutrophils; test: Killing of bacteria by neutrophils; assay type: cell-based
[3] = system: human neutrophils; test: Reversibility of inhibition of TNF triggered respiratory burst after washing; assay type: cell-based; details: washed twice with cold KRPG before TNF 100 ng/ml
Protocol: Neutrophils were incubated with test compounds I-V or DMSO at 37° C. for 30 min in FBS coated tubes (Falcon, Cat. Number 352063), washed twice with cold KRPG, and plated in 96 well plates before stimulation with TNF (100 ng/ml) or an equivalent volume of KRPG buffer as a control. On a separate plate, compounds were added back to the neutrophils that were washed off compounds, and cells were stimulated to ensure neutrophils' capacity to respond. Neutrophils incubated with each compound without washing were also stimulated for comparison.

[4] = system: p47phox; test: Translocation of p47phox subunit to the cell membrane (western blot of membrane fraction); assay type: cell-based, human; details: TNF or PMA stimulation
From the text: In an attempt to identify specific steps of the biochemical pathway(s) that are influenced by Comp II, the effect on translocation of phagocyte oxidase (Phox) translocation was examined. Phox is a multi-subunit enzyme complex that generates H2O2 upon activation. Activation of Phox requires an assembly of both membrane associated and cytosolic subunits at the plasma or phagosomal membrane as well as phosphorylation of several subunits. The cytochrome b559 (also known as b558) components of phox (gp91 and gp22) are localized on the membranes of specific granules (Bjerrum et al, “Dual Granule Localization of the Dormant NADPH Oxidase and Cytochrome b559 in Human Neutrophils,” Eur J Haematol 43(1): 67-77 (1989), which is hereby incorporated by reference in its entirety), and recruitment of these subunits to the membrane occurs simultaneously with degranulation. […] The influence of Comp II on the translocation of p47phox subunit, one of the components of NADPH oxidase, to the cell membrane, was examined as follows.
Neutrophil lysates were prepared as above with 2.5% TritonX-100 lysis buffer (final concentration of 1% TritonX-100 after dilution in plate with residual KRPG). The cell lysate was passed through 26-gauge needle six times to shear DNA and centrifuged at 20,000×g for 15 min to remove cell debris and DNA. […]

Compound	myeloperoxidase (MPO) release triggered by TNF [1]	lactoferrin (LF) release triggered by TNF [1]	bacterial killing ability of PMNs (general statement) [2]	degranulation of neutrophils (general statement) [1]	reversibility of inhibition of TNF triggered respiratory burst [3]	activation triggered translocation of phox 47 to the membrane [4]
Cc1nc(N/N=C/c2ccccc2O)c2c3c(sc2n1)CCCC3 [Comp I, 2-[(2-Methyl-5,6,7,8-tetrahydro-benzo[4,5]thieno [2,3-a]pyrimidin-4-yl)-hydrazonomethyl]-phenol]	almost complete inhibition	inconclusive	–	–	–	–
O=C1CC(c2ccccc2)=NN1c1cccc(Cl)c1 [Comp II, 2-(3-Chloro-phenyl)-5-phenyl-2,4-dihydro-pyrazol-3-one]	very moderate inhibition	did not block	sparing	takes place normally; also recorded: sparing	greatest reversibility	not inhibited
C(=N\Nc1ncnc2sc3c(c12)CCCC3)/c1cccnc1 [Comp III, N-Pyridin-3-ylmethylene-N-(5,6,7,8-tetrahydro-benzo[4,5] [2,3-a]pyrimidin-4-yl)-hydrazine]	almost complete inhibition	partially inhibited	–	–	–	–
O=C(CSc1nc2ccccc2s1)N/N=C/c1cc([N+](=O)[O-])ccc1O [Comp IV, (Benzothiazol-2-ylsulfanyl)-acetic acid (2-hydroxy-5-nitro-benzylidene) -hydrazide]	almost complete inhibition	partially inhibited	–	–	–	–
